“Also recorded” adds a separate entry of the source.
System: virus

TRITON-X100 was tested. Which “biocidal activity against virus (ability to inactivate a virus)” value did it give?
Its value is “less biocidal activity; also recorded: less ability to inactivate a virus”.

Reference: patent publication US8877208B2 (priority 2008, dated 2014)
